Assay results: ChEMBL document CHEMBL1124274, “Synthesis, pharmacological action, and receptor binding affinity of the enantiomeric 1-(1-phenyl-3-methylcyclohexyl)piperidines” (J Med Chem, 1988)

target: T1, Glutamate receptor ionotropic, NMDA 2C (Rattus norvegicus, UniProt Q00961); test: Binding affinity against phencyclidine receptor was determined by the displacement of [3H]TCP of whole rat brain minus cerebellum.; assay type: tissue-based
T1 sequence (Q00961 whole entry): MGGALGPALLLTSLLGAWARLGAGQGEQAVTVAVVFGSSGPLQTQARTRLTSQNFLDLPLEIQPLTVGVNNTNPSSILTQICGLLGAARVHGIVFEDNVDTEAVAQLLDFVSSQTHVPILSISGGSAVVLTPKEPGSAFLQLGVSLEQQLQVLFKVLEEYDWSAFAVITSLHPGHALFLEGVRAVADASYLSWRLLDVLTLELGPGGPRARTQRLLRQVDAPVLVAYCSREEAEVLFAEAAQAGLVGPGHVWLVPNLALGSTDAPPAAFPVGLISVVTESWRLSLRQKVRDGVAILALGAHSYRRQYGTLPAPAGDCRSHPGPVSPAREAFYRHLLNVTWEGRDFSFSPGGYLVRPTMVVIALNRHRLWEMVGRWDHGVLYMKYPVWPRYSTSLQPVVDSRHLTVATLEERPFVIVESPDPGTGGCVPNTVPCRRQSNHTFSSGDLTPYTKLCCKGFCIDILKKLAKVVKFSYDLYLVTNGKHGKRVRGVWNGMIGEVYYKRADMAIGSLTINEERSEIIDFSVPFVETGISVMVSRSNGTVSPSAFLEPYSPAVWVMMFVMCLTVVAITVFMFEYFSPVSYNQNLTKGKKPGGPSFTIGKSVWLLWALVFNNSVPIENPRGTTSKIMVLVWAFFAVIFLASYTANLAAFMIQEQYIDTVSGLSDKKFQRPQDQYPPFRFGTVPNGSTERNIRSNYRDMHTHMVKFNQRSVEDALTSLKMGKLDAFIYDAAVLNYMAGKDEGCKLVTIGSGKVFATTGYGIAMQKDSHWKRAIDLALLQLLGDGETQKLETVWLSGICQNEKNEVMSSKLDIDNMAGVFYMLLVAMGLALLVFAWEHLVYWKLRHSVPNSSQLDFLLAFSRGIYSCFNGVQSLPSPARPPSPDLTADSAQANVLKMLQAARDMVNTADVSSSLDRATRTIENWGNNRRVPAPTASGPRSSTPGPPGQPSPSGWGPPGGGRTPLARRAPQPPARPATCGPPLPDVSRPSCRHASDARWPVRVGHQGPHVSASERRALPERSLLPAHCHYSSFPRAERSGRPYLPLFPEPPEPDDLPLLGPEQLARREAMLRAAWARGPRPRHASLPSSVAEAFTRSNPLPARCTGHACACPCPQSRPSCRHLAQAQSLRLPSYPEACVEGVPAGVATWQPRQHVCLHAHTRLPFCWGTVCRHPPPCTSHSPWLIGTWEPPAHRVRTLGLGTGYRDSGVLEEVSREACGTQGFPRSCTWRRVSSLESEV

SMILES	Ki [µM]
C[C@H]1CCC[C@@](c2ccccc2)(N2CCCCC2)C1	3.3
C[C@@H]1CCC[C@](c2ccccc2)(N2CCCCC2)C1	0.82
C[C@@H]1CCC[C@@](c2ccccc2)(N2CCCCC2)C1	6.8
C[C@H]1CCC[C@](c2ccccc2)(N2CCCCC2)C1	0.17
CC1CCCN(C2(c3ccccc3)CCCCC2)C1 (stereo in doubt; (+))	0.06
CC1CCCN(C2(c3ccccc3)CCCCC2)C1 (stereo in doubt; (-))	2.15
c1ccc(C2(N3CCCCC3)CCCCC2)cc1 [PHENCYCLIDINE]	0.06

target: T1, Glutamate receptor ionotropic, NMDA 2C; test: Inhibition activity against binding of phencyclidine receptor was determined by the displacement of [3H]-TCP of whole rat brain minus cerebellum.; assay type: tissue-based

SMILES	IC50 [µM]
c1ccc(C2(N3CCCCC3)CCCCC2)cc1 [PHENCYCLIDINE]	0.6
